Columns and labels:
SK-MEL-28 = experiment: 3 day proliferation assay, B-Raf V600E mutant cancer cell line; assay type: cell-based; settings: Homo sapiens; SK-MEL-28, Skin, BRAF V600E; read-out: Mean gIC50
RKO = experiment: as above; assay type: cell-based; settings: Homo sapiens, Colon, BRAF V600E, read-out: Mean gIC50
SH-4 = experiment: as above; assay type: cell-based; settings: Homo sapiens; SH-4, Skin, BRAF V600E; read-out: Mean gIC50
WM115 = experiment: as above; assay type: cell-based; settings: Homo sapiens, WM-115, WM115, Skin, BRAF V600D, read-out: Mean gIC50
SW872 = experiment: as above; assay type: cell-based; settings: Homo sapiens; SW872, Connective tissue, BRAF V600E; read-out: Mean gIC50
UACC-62 = experiment: as above; assay type: cell-based; settings: Homo sapiens; UACC-62, Skin, BRAF V600E; read-out: Mean gIC50
A673 = experiment: as above; assay type: cell-based; settings: Homo sapiens; A673, Muscle, BRAF V600E; read-out: Mean gIC50
[1] = tested on: Human melanoma cancer cells (SK-MEL-28); experiment: Cell growth inhibition assay (CellTiter-Glo), SK-MEL-28; assay type: cell-based; settings: SK-MEL-28, Table 3b, later runs, average for the one or more runs, categorized, read-out: IC50 for SK-MEL-28
COLO 205 = experiment: 3 day proliferation assay, B-Raf V600E mutant cancer cell line; assay type: cell-based; settings: Homo sapiens; COLO 205, Colon, BRAF V600E; read-out: Mean gIC50
HT-29 = experiment: as above; assay type: cell-based; settings: Homo sapiens, HT-29, Colon, BRAF T119S, read-out: Mean gIC50
A101D = experiment: as above; assay type: cell-based; settings: Homo sapiens, Skin, BRAF V600E, read-out: Mean gIC50
UACC-257 = experiment: as above; assay type: cell-based; settings: Homo sapiens; UACC-257, Skin, BRAF V600E; read-out: Mean gIC50
C32TG = experiment: as above; assay type: cell-based; settings: Skin, BRAF V600E, read-out: Mean gIC50
NCI-H292 = experiment: as above; assay type: cell-based; settings: Homo sapiens, NCI-H292, Lung, BRAF T119S, read-out: Mean gIC50
[2] = tested on: Human colon tumor cells (Colo205); experiment: Cell growth inhibition assay (CellTiter-Glo), Colo205; assay type: cell-based; settings: COLO 205, Table 2b, later runs, average for the one or more runs, categorized, read-out: IC50 for Colo205
In short: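 Colo205 (and SK-MEL-28) cells in RPMI with 10% FBS were exposed to 10-point 1:3 serial dilutions of compound at 0.2% final DMSO for 3 days at 37 °C. Total ATP, a surrogate for cell number, was read by CellTiter-Glo luminescence, with % growth inhibition relative to DMSO-treated wells.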

SK-MEL-1 = experiment: 3 day proliferation assay, B-Raf V600E mutant cancer cell line; assay type: cell-based; settings: Homo sapiens; SK-MEL-1, Skin, BRAF V600E; read-out: Mean gIC50
UCLA-SO-M14 = experiment: as above; assay type: cell-based; settings: UCLA-SO-M14, Skin, BRAF V600E; read-out: Mean gIC50
SK-MEL-3 = experiment: as above; assay type: cell-based; settings: Homo sapiens, SK-MEL3; SK-MEL-3, Skin, BRAF V600E; read-out: Mean gIC50
GCT = experiment: as above; assay type: cell-based; settings: Homo sapiens, Skin, BRAF V600E, read-out: Mean gIC50
A375P F11s [3] = experiment: Dose dependent tumor inhibition, A375P F11s xenograft; assay type: in vivo, athymic mice; parameters: key: −: indicates no response; +: indicates growth delay (1-2x doubling); ++: indicates growth delay (>2x doubling); +++: indicates stable disease; ++++: indicates partial regression; +++++: indicates complete regression; settings: oral, 14-day period
Protocol: 1. […] Tumor cells (2×10^6 A375P F11s) were implanted subcutaneously into the right flank of athymic mice on Day 1. To facilitate their growth, A375P F11s cells were suspended in Matrigel diluted 1:1 in phosphate-buffered saline before implantation. When tumors had reached approximately 200 mm^3 in volume (Day 19-22), tumor-bearing mice were randomized into study groups (n=7 or 8). Animals were dosed orally once or twice daily for a 14-day period. […] Tumor growth was measured twice a week using calipers for the duration of the study. Tumor volumes were calculated as a product of (length×width×width)/2 and median values were used to compare groups. Complete regressions (CR) were defined as three consecutive tumor measurements of ≦13.5 mm^3. Partial regressions were defined as three consecutive measurements of ≦50% of starting tumor volume. Tumor growth delay was defined as the difference in time taken for treated and control groups to reach 1000 mm^3 (T-C1000).

DU4475 = experiment: 3 day proliferation assay, B-Raf V600E mutant cancer cell line; assay type: cell-based; settings: Homo sapiens, DU-4475; DU4475, Breast, BRAF V600E; read-out: Mean gIC50
MALME-3M = experiment: as above; assay type: cell-based; settings: Homo sapiens, Skin, BRAF V600E, read-out: Mean gIC50
A375P F11s [4] = experiment: as above; assay type: cell-based; settings: Skin, BRAF V600E, read-out: Mean gIC50
ES-2 = experiment: as above; assay type: cell-based; settings: Homo sapiens; ES-2, Ovary, BRAF V600E; read-out: Mean gIC50
SW1417 = experiment: as above; assay type: cell-based; settings: Homo sapiens; SW1417, Colon, BRAF V600E; read-out: Mean gIC50
[5] = tested on: cancer cell lines encoding B-Raf V600E mutation; experiment: 3 day proliferation assay, panel of 22 mutant cancer cell lines; assay type: cell-based; settings: number of cell lines of the panel

SMILES: CC(C)(C)c1nc(-c2cccc(NS(=O)(=O)c3c(F)cccc3F)c2F)c(-c2ccnc(N)n2)s1 [Example 58a, N-{3-[5-(2-Amino-4-pyrimidinyl)-2-(1,1-dimethylethyl)-1,3-thiazol-4-yl]-2-fluorophenyl}-2,6-difluorobenzenesulfonamide]
- IC50 (SK-MEL-28): < 100 nM
- IC50 (RKO): ≥ 1000 nM
- IC50 (SH-4): < 100 nM
- IC50 (WM115): < 100 nM
- IC50 (SW872): 100 to 1000 nM
- IC50 (UACC-62): < 100 nM
- IC50 (A673): ≥ 1000 nM
- IC50 [1]: < 100 nM
- IC50 (COLO 205): < 100 nM
- IC50 (HT-29): < 100 nM
- IC50 (A101D): < 100 nM
- IC50 (UACC-257): < 100 nM
- IC50 (C32TG): < 100 nM
- IC50 (NCI-H292): ≥ 1000 nM
- IC50 [2]: < 100 nM
- IC50 (SK-MEL-1): < 100 nM
- IC50 (UCLA-SO-M14): < 100 nM
- IC50 (SK-MEL-3): < 100 nM
- IC50 (GCT): ≥ 1000 nM
- Response (A375P F11s [3]; 0.1 mg/kg qd): −
- Response (A375P F11s [3]; 1 mg/kg qd): + (indicates growth delay (1-2x doubling))
- IC50 (DU4475): < 100 nM
- IC50 (MALME-3M): < 100 nM
- IC50 (A375P F11s [4]): < 100 nM
- IC50 (ES-2): < 100 nM
- IC50 (SW1417): 100 to 1000 nM
- cancer cell lines encoding B-Raf V600E sensitive with gIC50<100 nM [5]: 16 out of 22
- cancer cell lines not sensitive (gIC50>1000M) [5]: 4 out of 22
- cancer cell lines with intermediate response (gIC50≧100 nM and <1000 nM) [5]: 2 out of 22

Reference: patent US7994185B2, “Benzene sulfonamide thiazole and oxazole compounds” (Glaxo Smith Kline LLC, priority 2008, dated 2011)
